The compounds below were run against PD-1/PD-L1 interaction (PD-1-Ig / PD-L1-His) (Homo sapiens (Human), UniProt Q9NZQ7) (assay: PD-1/PD-L1 Homogenous Time-Resolved Fluorescence (HTRF) binding assay). Settings: PD-1/PD-L1 HTRF binding assay; numeric value; read-out: Range or IC50.
From the text: The ability of the compounds of formula (I) to bind to PD-L1 was investigated using a PD-1/PD-L1 Homogenous Time-Resolved Fluorescence (HTRF) binding assay.
Homogenous Time-Resolved Fluorescence (HTRF) Binding Assay.
The interaction of PD-1 and PD-L1 can be assessed using soluble, purified preparations of the extracellular domains of the two proteins. The PD-1 and PD-L1 protein extracellular domains were expressed as fusion proteins with detection tags, for PD-1, the tag was the Fc portion of Immunoglobulin (PD-1-Ig) and for PD-L1 it was the 6 histidine motif (PD-L1-His). All binding studies were performed in an HTRF assay buffer consisting of dPBS supplemented with 0.1% […] bovine serum albumin and 0.05% (v/v) Tween-20. For the h/PD-L1-His binding assay, inhibitors were pre-incubated with PD-L1-His (10 nM final) for 15 m in 4 μl of assay buffer, followed by addition of PD-1-Ig (20 nM final) in 1 μl of assay buffer and further incubation for 15 m. HTRF detection was achieved using europium crypate-labeled anti-Ig (1 nM final) and allophycocyanin (APC) labeled anti-His (20 nM final). Antibodies were diluted in HTRF detection buffer and 5 μl was dispensed on top of the binding reaction. […] Additional binding assays were established between the human proteins PD-1-Ig/PD-L2-His (20 & 5 nM, respectively) and CD80-His/PD-L1-Ig (100 & 10 nM, respectively). […]

Sequence of PD-1/PD-L1 interaction (PD-1-Ig / PD-L1-His) (Q9NZQ7 other isoform, or with tags, fused parts or gaps): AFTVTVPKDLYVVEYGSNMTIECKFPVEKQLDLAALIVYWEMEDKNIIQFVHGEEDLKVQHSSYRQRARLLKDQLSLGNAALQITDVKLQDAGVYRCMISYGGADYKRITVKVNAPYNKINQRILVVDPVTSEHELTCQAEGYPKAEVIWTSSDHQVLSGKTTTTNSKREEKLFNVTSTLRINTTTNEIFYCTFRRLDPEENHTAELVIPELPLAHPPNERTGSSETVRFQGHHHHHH

| IC50 [nM] | SMILES |
| --- | --- |
| 624 | CC(=O)NCCNCc1ccc(OCc2cccc(-c3ccccc3)c2C)cc1OCc1ccc(F)c(C)c1 [Example 1108, N-(2-((2-((4-fluoro-3-methylbenzyl)oxy)-4-((2-methyl-[1,1′-biphenyl]-3-yl)methoxy)benzyl)amino)ethyl)acetamide] |

Same assay, conditions: PD-1/PD-L1 HTRF binding assay; value given as range class; read-out: Range or IC50

| SMILES | IC50 [nM] |
| --- | --- |
| Cc1c(COc2cc(OCc3cccc(C#N)c3)c(CN[C@H](COCc3ccccc3)C(=O)O)cc2Cl)cccc1-c1ccc2c(c1)OCCO2 [Example 1194, (R)-3-(benzyloxy)-2-((5-chloro-2-((3-cyanobenzyl)oxy)-4-((3-(2,3-dihydrobenzo[b][1,4]dioxin-6-yl)-2-methylbenzyl)oxy)benzyl)amino)propanoic acid] | 10 to 100 |
| CC(=O)NCCNCc1cc(C)c(OCc2cccc(-c3ccc4c(c3)OCCO4)c2C)cc1OCc1cccnc1 [Example 1276, N-(2-((4-((3-(2,3-dihydrobenzo[b][1,4]dioxin-6-yl)-2-methylbenzyl)oxy)-5-methyl-2-(pyridin-3-ylmethoxy)benzyl)amino)ethyl)acetamide] | 0.6 to 10 |
| CC(=O)NCCNCc1cc(C)c(OCc2cccc(-c3ccc4c(c3)OCCO4)c2C)cc1OCc1ccc(F)c(C#N)c1 [Example 1271, N-(2-((2-((3-cyano-4-fluorobenzyl)oxy)-4-((3-(2,3-dihydrobenzo[b][1,4]dioxin-6-yl)-2-methylbenzyl)oxy)-5-methylbenzyl)amino)ethyl)acetamide] | 0.6 to 10 |
| Cc1c(COc2cc(OCc3cccc(C#N)c3)c(CN[C@@H](Cc3cncn3C)C(=O)O)cc2Cl)cccc1-c1ccc2c(c1)OCCO2 [Example 1207, (S)-2-((5-chloro-2-((3-cyanobenzyl)oxy)-4-((3-(2,3-dihydrobenzo[b][1,4]dioxin-6-yl)-2-methylbenzyl)oxy)benzyl)amino)-3-(1-methyl-1H-imidazol-5-yl)propanoic acid] | 10 to 100 |
| Cc1cc(OCc2cccc(-c3ccc4c(c3)OCCO4)c2C)cc(OCc2cncc(C#N)c2)c1CN1CCCC[C@H]1C(=O)O [Example 1009, (S)-1-(2-((5-cyanopyridin-3-yl)methoxy)-4-(3-(2,3-dihydrobenzo[b][1,4]dioxin-6-yl)-2-methylbenzyloxy)-6-methylbenzyl)piperidine-2-carboxylic acid] | 0.6 to 10 |

Other lines, results leading:

| IC50 [nM] | SMILES |
| --- | --- |
| 100 to 20000 | CC(=O)NCCNCc1ccc(OCc2cccc(-c3ccccc3)c2C)cc1OCc1cc(C)ccc1F [Example 1094, N-(2-((2-((2-fluoro-5-methylbenzyl)oxy)-4-((2-methyl-[1,1′-biphenyl]-3-yl)methoxy)benzyl)amino)ethyl)acetamide] |
| 100 to 20000 | CC(=O)NCCNCc1ccc(OCc2cccc(-c3ccccc3)c2C)cc1OCc1cccc(Cl)c1F [Example 1072, N-(2-((2-((3-chloro-2-fluorobenzyl)oxy)-4-((2-methyl-[1,1′-biphenyl]-3-yl)methoxy)benzyl)amino)ethyl)acetamide] |
| 100 to 20000 | CC(=O)NCCNCc1ccc(OCc2cccc(-c3ccccc3)c2C)cc1OCc1cc(C)cc(F)c1 [Example 1113, N-(2-((2-((3-fluoro-5-methylbenzyl)oxy)-4-((2-methyl-[1,1′-biphenyl]-3-yl)methoxy)benzyl)amino)ethyl)acetamide] |
| 100 to 20000 | CC(=O)NCCNCc1ccc(OCc2cccc(-c3ccccc3)c2C)cc1OCc1cc(F)ccc1F [Example 1060, N-(2-((2-((2,5-difluorobenzyl)oxy)-4-((2-methyl-[1,1′-biphenyl]-3-yl)methoxy)benzyl)amino)ethyl)acetamide] |
| 100 to 20000 | CC(=O)NCCNCc1ccc(OCc2cccc(-c3ccccc3)c2C)cc1OCc1ccc2ccccc2c1 [Example 1056, N-(2-((4-((2-methyl-[1,1′-biphenyl]-3-yl)methoxy)-2-(naphthalen-2-ylmethoxy)benzyl)amino)ethyl)acetamide] |
